BindingDB's records for patent US20250289799 (Jiangsu Yahong Meditech Co., 2025)

Target: Ubiquitin carboxyl-terminal hydrolase 1/WD repeat-containing protein 48 (Homo sapiens, UniProt O94782+Q8TAF3)
Assay: In Vitro USP1  Inhibitory Activity
Method: Experimental Methods1) Preparation of 1× assay buffer: 1× assay buffer (modified Tris buffer) was prepared;2) Compound dilution: The compound was transferred to the assay plate by Echo.

Sequence of Ubiquitin carboxyl-terminal hydrolase 1/WD repeat-containing protein 48 (O94782 whole entry): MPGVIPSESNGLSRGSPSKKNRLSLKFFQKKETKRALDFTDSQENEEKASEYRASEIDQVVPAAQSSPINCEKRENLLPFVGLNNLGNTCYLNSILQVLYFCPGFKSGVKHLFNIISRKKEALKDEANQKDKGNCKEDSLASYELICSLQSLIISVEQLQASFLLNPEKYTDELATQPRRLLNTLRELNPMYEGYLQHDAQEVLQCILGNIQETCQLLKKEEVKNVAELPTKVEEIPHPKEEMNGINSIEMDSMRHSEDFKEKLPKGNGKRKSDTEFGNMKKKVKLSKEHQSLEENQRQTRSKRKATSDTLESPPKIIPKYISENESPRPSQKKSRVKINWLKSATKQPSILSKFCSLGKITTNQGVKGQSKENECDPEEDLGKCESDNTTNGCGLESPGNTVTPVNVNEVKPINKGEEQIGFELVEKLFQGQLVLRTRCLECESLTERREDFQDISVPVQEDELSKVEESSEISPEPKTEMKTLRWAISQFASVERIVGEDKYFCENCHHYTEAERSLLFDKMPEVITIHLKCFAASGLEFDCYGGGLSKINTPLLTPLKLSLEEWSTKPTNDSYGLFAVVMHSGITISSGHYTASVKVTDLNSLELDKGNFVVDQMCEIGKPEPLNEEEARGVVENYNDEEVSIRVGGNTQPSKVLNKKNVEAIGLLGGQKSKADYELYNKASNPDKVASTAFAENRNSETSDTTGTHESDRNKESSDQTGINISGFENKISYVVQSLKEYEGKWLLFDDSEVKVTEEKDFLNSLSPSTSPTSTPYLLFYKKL
Sequence of Ubiquitin carboxyl-terminal hydrolase 1/WD repeat-containing protein 48 (Q8TAF3 whole entry): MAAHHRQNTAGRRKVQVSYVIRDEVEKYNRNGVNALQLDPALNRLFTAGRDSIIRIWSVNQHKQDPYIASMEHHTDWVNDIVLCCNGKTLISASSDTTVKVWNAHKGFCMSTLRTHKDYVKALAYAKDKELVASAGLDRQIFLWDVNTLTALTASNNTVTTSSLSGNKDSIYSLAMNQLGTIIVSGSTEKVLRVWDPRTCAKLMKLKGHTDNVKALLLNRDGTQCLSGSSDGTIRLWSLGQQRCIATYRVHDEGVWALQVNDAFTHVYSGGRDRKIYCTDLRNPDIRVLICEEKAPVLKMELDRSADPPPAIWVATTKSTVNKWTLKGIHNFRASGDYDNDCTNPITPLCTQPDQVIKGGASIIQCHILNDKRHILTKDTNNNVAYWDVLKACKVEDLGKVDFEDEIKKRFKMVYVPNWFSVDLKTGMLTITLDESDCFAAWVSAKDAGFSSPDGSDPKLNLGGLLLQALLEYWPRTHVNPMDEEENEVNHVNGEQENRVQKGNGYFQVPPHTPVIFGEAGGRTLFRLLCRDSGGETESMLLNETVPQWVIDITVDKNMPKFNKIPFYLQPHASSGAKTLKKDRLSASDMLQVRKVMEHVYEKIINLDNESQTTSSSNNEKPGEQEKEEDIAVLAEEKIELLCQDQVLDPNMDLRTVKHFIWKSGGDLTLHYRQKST

IC50 | Compound
9.8 nM | COc1cnn(C2CC2)c1-c1ncc(OC(F)F)c(NCc2ccc(-c3nc(C(F)(F)F)cn3C)cc2)n1 [US20250289799, Example 185]
873 nM | CC(C)Oc1cnc(-c2ccccc2C(C)C)nc1NCC12CCC(c3ccc(C(F)(F)F)cn3)(CC1)CC2 [US20250289799, Example 74]
2.9 nM | COc1cnc(-c2cccnc2C(C)C)nc1NCc1ccc(-c2nc(C(F)(F)F)cn2C)cc1 [US20250289799, Example 157]
2.8 nM | CC(C)c1ccccc1-c1nc(NCc2ccc(-c3ccccn3)cc2)c2occc2n1 [US20250289799, Example 32]
2.8 nM | COc1cnc(-c2c(C)cnn2C(C)C)nc1N(C)Cc1ccc(-c2nc(C(F)(F)F)cn2C)cc1 [US20250289799, Example 200]
4.6 nM | COc1cnc(-c2c(OC)ncnc2C2CC2)nc1NCc1ccc(-n2nc(C(F)(F)F)cc2C)cc1 [US20250289799, Example 26]
11 nM | COc1cnc(-c2ccccc2C(C)C)nc1N(C)CC1CCC(c2ccccn2)CC1 (centres undefined) [US20250289799, Example 61]
3.4 nM | COc1cnc(-c2cccnc2C2CC2)nc1NCc1ccc(-c2nc(C(F)(F)F)cn2C)cc1 [US20250289799, Example 153]
3.6 nM | COc1cnc(-c2ccccc2N(C)C)nc1NCc1ccc(-n2nc(C(F)(F)F)cc2C)cc1 [US20250289799, Example 160]
5.6 nM | COc1cnc(-c2c(C)cnn2C2CC2)nc1NCc1ccc(-c2nc(C(F)(F)F)cn2C)cc1 [US20250289799, Example 199]
3.2 nM | COc1ncnc(C2CC2)c1-c1ncc(OC(F)F)c(NCc2ccc(-n3nc(C(F)(F)F)cc3C)cc2)n1 [US20250289799, Example 135]
12 nM | c1ccc(-c2ccc(CNc3nc(-c4cccnc4C4CC4)nc4ccoc34)cc2)nc1 [US20250289799, Example 155]
9 nM | COCc1cnc(-c2c(OC)ncnc2C2CC2)nc1N(C)Cc1ccc(-c2nc(C(F)(F)F)cn2C(C)C)cc1 [US20250289799, Example 138]
16 nM | Cc1noc(C(C)C)c1-c1nc(NCc2ccc(-c3ccccn3)cc2)c2occc2n1 [US20250289799, Example 189]
28.6 nM | COc1ncnc(C2CC2)c1-c1ncc(OC(C)C)c(NCC2CCN(c3nc(C(F)(F)F)cn3C)CC2)n1 [US20250289799, Example 110]
91.5 nM | COc1ncnc(C2CC2)c1-c1ncc2c(n1)N(CC1CCN(c3nc(C(F)(F)F)cn3C)CC1)CCO2 [US20250289799, Example 20]
2.3 nM | COc1cc(-c2nc(C(F)(F)F)cn2C)ccc1CNc1nc(-c2ccccc2C2CC2)ncc1OC [US20250289799, Example 171]
87 nM | COc1cnc(-c2cncnc2C2CC2)nc1N(C)Cc1ccc(-c2nc(C(F)(F)F)cn2C)cc1 [US20250289799, Example 193]
69.2 nM | Cc1ncn(C(C)C)c1-c1nc(NCc2ccc(-c3nc(C(F)(F)F)cn3C)cc2)c2occc2n1 [US20250289799, Example 149]
33 nM | Cc1noc(C(C)C)c1-c1ncc(OC(F)F)c(NCc2ccc(-c3nc(C(F)(F)F)cn3C)cc2)n1 [US20250289799, Example 190]
6.1 nM | COc1cnc(-c2c(Cl)cnn2C(C)C)nc1N(C)CC12CCC(c3nc(C(F)(F)F)cn3C)(CC1)OC2 [US20250289799, Example 211]
66 nM | COc1cnc(-c2c(C)noc2C(C)C)nc1N(C)CC1CCN(c2ccccn2)CC1 [US20250289799, Example 186]

IC50 | Compound
22 nM | COc1cnc(-c2ccccc2C(C)C)nc1NCc1ccc(-c2nccn3ccnc23)cc1 [US20250289799, Example 11]
10 nM | COc1cc(CNc2nc(-c3c(OC)ncnc3C3CC3)ncc2OC)ccc1-n1nc(C(F)(F)F)cc1C [US20250289799, Example 103]
263 nM | COc1cnc(-c2c(OC)ncnc2C2CC2)nc1NCc1ccc2c(c1)CCN(C(C)C)C2=O [US20250289799, Example 97]
1.1 nM | CC(C)c1ccccc1-c1ncc(OC(F)F)c(NCc2ccc(-c3nc(C(F)(F)F)cn3C)cc2)n1 [US20250289799, Example 86]
1.3 nM | COC(=O)Cc1cnc(-c2ccccc2C(C)C)nc1NCc1ccc(-c2nc(C(F)(F)F)cn2C)cc1 [US20250289799, Example 91]
3.2 nM | COc1ncnc(C2CC2)c1-c1ncc(OC(F)F)c(NCc2ccc(-c3nc(C(F)(F)F)cn3C)cc2)n1 [US20250289799, Example 134]
3.5 nM | COc1cnc(-c2c(OC)ncnc2C2CC2)nc1N(C)CC12C3C4C1C1C2C3C41c1nc(C(F)(F)F)cn1C (centres undefined) [US20250289799, Example 207]
6 nM | C#Cc1cnc(-c2c(OC)ncnc2C2CC2)nc1NCc1ccc(-c2nc(C(F)(F)F)cn2C)cc1 [US20250289799, Example 132]
7.6 nM | COc1cc(-c2nc(C(F)(F)F)cn2C)ccc1CNc1nc(-c2c(OC)ncnc2C2CC2)nc2ccoc12 [US20250289799, Example 119]
23 nM | COc1ncnc(C2CC2)c1-c1nc(NCc2ccc(-c3nc(C(F)(F)F)cn3C)s2)c2occc2n1 [US20250289799, Example 113]
2.3 nM | COc1cnc(-c2c(Cl)cnn2C(C)C)nc1NCC1CCN(c2nc(C(F)(F)F)cn2C)CC1 [US20250289799, Example 163]
8.8 nM | CC(C)c1ccccc1-c1ncc2c(n1)N(CC1CCN(c3nc(C(F)(F)F)cn3C)CC1)C(=O)CO2 [US20250289799, Example 24]
2.9 nM | COc1cnc(-c2ccccc2C2CC2)nc1NCc1ccc(-n2nc(C(F)(F)F)cc2C)cc1 [US20250289799, Example 170]
15 nM | COc1cnc(-c2c(OC)cnn2C(C)C)nc1NCc1ccc(-c2nc(C(F)(F)F)cn2C)cc1 [US20250289799, Example 180]
2.1 nM | COc1cnc(-c2cccnc2C(C)C)nc1NCc1ccc(-n2nc(C(F)(F)F)cc2C)cc1 [US20250289799, Example 158]
3.7 nM | CC(C)c1ccccc1-c1ncc(C(F)(F)F)c(NCC2CCN(c3nc(C(F)(F)F)cn3C)CC2)n1 [US20250289799, Example 25]
4.4 nM | Cc1cc(C(F)(F)F)nn1-c1ccc(CNc2nc(-c3ccccc3C(C)C)nc3ccoc23)cc1 [US20250289799, Example 57]
7.4 nM | COc1cnn(C(C)C)c1-c1nc(NCc2ccc(-n3nc(C(F)(F)F)cc3C)cc2)c2occc2n1 [US20250289799, Example 182]
0.47 nM | C#Cc1cnc(-c2ccccc2C(C)C)nc1NCc1ccc(-c2nc(C(F)(F)F)cn2C)cc1 [US20250289799, Example 85]
13 nM | COc1ncnc(C2CC2)c1-c1ncc(Cl)c(NCc2ccc(-c3nc(C(F)(F)F)cn3CF)cc2)n1 [US20250289799, Example 126]
8.9 nM | COc1cc(CNc2nc(-c3c(OC)ncnc3C3CC3)nc3ccoc23)ccc1-c1nc(C(F)(F)F)cn1C [US20250289799, Example 120]
15 nM | COc1cnc(-c2c(C)noc2C(C)C)nc1NCc1ccc(-c2nc(C(F)(F)F)cn2C)cc1 [US20250289799, Example 188]
